Laboratory results taken from patent US20250170090A1, “METHOD FOR PREVENTING OR TREATING DISEASE OR DISORDER ASSOCIATED WITH ANTINEOPLASTIC AGENT” (ONQUALITY PHARMACEUTICALS CHINA LTD., priority 2022, published 2025).
Where two headings read alike, the source gives them in different places.

Tests used:
[1] = test system: hand-foot syndrome induced by anti-tumor agents; test: Prevention of hand-foot syndrome induced by anti-tumor agents in rats, NO-NSAID ointment on hind paws (Table 2-2); type: in vivo, SD rats; conditions: Rattus norvegicus, topical, read-out: Control rate; for responders at 0.5 %: ointment 0.50% wt; for responders at 1 %: ointment 1% wt; for responders at 2.5 %: ointment 2.50% wt; for responders at 5 %: ointment 5% wt
Outline: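 Female SD rats (8 weeks, ~200 g; 10/group) received anti-tumour agents by daily oral gavage in Cremophor EL:ethanol 1:1 diluted ~3× with PBS. NO-NSAID or blank ointment was applied to hind paws once daily, 4 h restrained, then wiped off. Control rate = blank-group minus treated-group hand-foot syndrome incidence.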

HUVEC cells = test: CCK-8 cell viability: alleviation of proliferative toxicity of anti-tumor agents on HUVEC cells (Tables 7-1, 7-2); type: cell-based; conditions: for activation at 100 µM: Homo sapiens, 24 h, percentage increase in viable cells vs anti-tumor agent alone, read-out: Response rate % (average)
Outline: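 Viability was measured by CCK-8 after 24-48 h of culture. Cells received anti-tumor agent in DMSO with or without co-added NO-NSAID (dissolved in ethanol or sterile water), and results were corrected against the matching NO-NSAID solvent control.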

[2] = 120 h, Sorafenib 80 mg/kg once a day, Days 5
[3] = 432 h, Cabozantinib 50 mg/kg once a day, Days 18
[4] = 432 h, Lenvatinib 100 mg/kg twice a day, Days 18
[5] = 432 h, Nintedanib 110 mg/kg once a day, Days 18
[6] = 432 h, Regorafenib 90 mg/kg once a day, Days 18
[7] = Afatinib (10 μM), NO-NSAID 100 μM
[8] = Cabozantinib (5 μM), NO-NSAID 100 μM
[9] = Dabrafenib (10 μM), NO-NSAID 100 μM
[10] = Everolimus (5 μM), NO-NSAID 100 μM
[11] = Infigratinib (15 μM), NO-NSAID 100 μM
[12] = Lapatinib (5 μM), NO-NSAID 100 μM
[13] = Lenvatinib (10 μM), NO-NSAID 100 μM
[14] = Olmutinib (10 μM), NO-NSAID 100 μM
[15] = Regorafenib (5 μM), NO-NSAID 100 μM
[16] = Selumetinib (5 μM), NO-NSAID 100 μM
[17] = Sorafenib (5 μM), NO-NSAID 100 μM
[18] = Sunitinib (5 μM), NO-NSAID 100 μM

Structure (SMILES): COc1ccc2cc(C(C)C(=O)OCCCCO[N+](=O)[O-])ccc2c1 (stereo not drawn) [Compound A5]
- responders at 0.5 % [1, 2]: 28.6%
- responders at 1 % [1, 2]: 50%
- responders at 2.5 % [1, 2]: 71.4%
- responders at 5 % [1, 2]: 80%
- responders at 2.5 % ([1]; 360 h, Apatinib 105 mg/kg once a day, Days 15): 42.9%
- responders at 2.5 % ([1]; 360 h, Encorafenib 80 mg/kg once a day, Days 15): 66.7%
- responders at 2.5 % ([1]; 360 h, Lapatinib 120 mg/kg twice a day, Days 15): 60%
- responders at 2.5 % ([1]; 360 h, Sunitinib 120 mg/kg once a day, Days 15): 57.1%
- responders at 2.5 % ([1]; 384 h, Fruquintinib 40 mg/kg once a day, Days 16): 42.9%
- responders at 2.5 % ([1]; 432 h, Anlotinib 20 mg/kg once a day, Days 18): 50%
- responders at 2.5 % ([1]; 432 h, Axitinib 50 mg/kg once a day, Days 18): 66.7%
- responders at 1 % [1, 3]: 42.9%
- responders at 2.5 % [1, 3]: 60%
- responders at 5 % [1, 3]: 57.1%
- responders at 1 % [1, 4]: 28.6%
- responders at 2.5 % [1, 4]: 71.4%
- responders at 5 % [1, 4]: 71.4%
- responders at 1 % [1, 5]: 40%
- responders at 2.5 % [1, 5]: 66.7%
- responders at 5 % [1, 5]: 50%
- responders at 0.5 % [1, 6]: 50%
- responders at 1 % [1, 6]: 71.4%
- responders at 2.5 % [1, 6]: 71.4%
- responders at 5 % [1, 6]: 83.3%
- responders at 2.5 % ([1]; 480 h, Erdafitinib 45 mg/kg once a day, Days 20): 57.1%
- responders at 2.5 % ([1]; 480 h, Olmutinib 100 mg/kg once a day, Days 20): 66.7%
- NO-NSAID response rate % (average) (HUVEC cells; Afatinib (10 μM), NO-NSAID 0.1 μM): 24%
- NO-NSAID response rate % (average) (HUVEC cells; Afatinib (10 μM), NO-NSAID 1 μM): 28%
- NO-NSAID response rate % (average) (HUVEC cells; [7]): 69%
- NO-NSAID response rate % (average) (HUVEC cells; Afatinib (10 μM), NO-NSAID 500 μM): 22%
- NO-NSAID response rate % (average) (HUVEC cells; Cabozantinib (5 μM), NO-NSAID 0.1 μM): 1%
- NO-NSAID response rate % (average) (HUVEC cells; Cabozantinib (5 μM), NO-NSAID 1 μM): 15%
- NO-NSAID response rate % (average) (HUVEC cells; [8]): 60%
- NO-NSAID response rate % (average) (HUVEC cells; Cabozantinib (5 μM), NO-NSAID 500 μM): 24%
- NO-NSAID response rate % (average) (HUVEC cells; Dabrafenib (10 μM), NO-NSAID 0.1 μM): 27%
- NO-NSAID response rate % (average) (HUVEC cells; Dabrafenib (10 μM), NO-NSAID 1 μM): 28%
- NO-NSAID response rate % (average) (HUVEC cells; [9]): 65%
- NO-NSAID response rate % (average) (HUVEC cells; Dabrafenib (10 μM), NO-NSAID 500 μM): 31%
- NO-NSAID response rate % (average) (HUVEC cells; Everolimus (5 μM), NO-NSAID 0.1 μM): 0%
- NO-NSAID response rate % (average) (HUVEC cells; Everolimus (5 μM), NO-NSAID 1 μM): −7%
- NO-NSAID response rate % (average) (HUVEC cells; [10]): 28%
- NO-NSAID response rate % (average) (HUVEC cells; Everolimus (5 μM), NO-NSAID 500 μM): −2%
- activation at 100 µM (HUVEC cells; [7]): 69%
- activation at 100 µM (HUVEC cells; Anlotinib (5 μM), NO-NSAID 100 μM): 57%
- activation at 100 µM (HUVEC cells; Apatinib (10 μM), NO-NSAID 100 μM): 59%
- activation at 100 µM (HUVEC cells; Axitinib (10 μM), NO-NSAID 100 μM): -2%
- activation at 100 µM (HUVEC cells; [8]): 60%
- activation at 100 µM (HUVEC cells; [9]): 65%
- activation at 100 µM (HUVEC cells; Dacomitinib (5 μM), NO-NSAID 100 μM): 75%
- activation at 100 µM (HUVEC cells; Encorafenib (5 μM), NO-NSAID 100 μM): 28%
- activation at 100 µM (HUVEC cells; Erdafitinib (10 μM), NO-NSAID 100 μM): 43%
- activation at 100 µM (HUVEC cells; [10]): 28%
- activation at 100 µM (HUVEC cells; Famitinib (5 μM), NO-NSAID 100 μM): 35%
- activation at 100 µM (HUVEC cells; Fruquintinib (10 μM), NO-NSAID 100 μM): 37%
- activation at 100 µM (HUVEC cells; Gefitinib (10 μM), NO-NSAID 100 μM): 21%
- activation at 100 µM (HUVEC cells; [11]): 48%
- activation at 100 µM (HUVEC cells; [12]): 62%
- activation at 100 µM (HUVEC cells; [13]): 32%
- activation at 100 µM (HUVEC cells; [14]): 48%
- activation at 100 µM (HUVEC cells; [15]): 83%
- activation at 100 µM (HUVEC cells; [16]): 61%
- activation at 100 µM (HUVEC cells; [17]): 1%
- activation at 100 µM (HUVEC cells; [18]): 44%
- activation at 100 µM (HUVEC cells; Vemurafenib (5 μM), NO-NSAID 100 μM): 24%
- NO-NSAID response rate % (average) (HUVEC cells; Infigratinib (15 μM), NO-NSAID 0.1 μM): 28%
- NO-NSAID response rate % (average) (HUVEC cells; Infigratinib (15 μM), NO-NSAID 1 μM): 30%
- NO-NSAID response rate % (average) (HUVEC cells; [11]): 48%
- NO-NSAID response rate % (average) (HUVEC cells; Infigratinib (15 μM), NO-NSAID 500 μM): 34%
- NO-NSAID response rate % (average) (HUVEC cells; Lapatinib (5 μM), NO-NSAID 0.1 μM): 26%
- NO-NSAID response rate % (average) (HUVEC cells; Lapatinib (5 μM), NO-NSAID 1 μM): 35%
- NO-NSAID response rate % (average) (HUVEC cells; [12]): 62%
- NO-NSAID response rate % (average) (HUVEC cells; Lapatinib (5 μM), NO-NSAID 500 μM): 36%
- NO-NSAID response rate % (average) (HUVEC cells; Lenvatinib (10 μM), NO-NSAID 0.1 μM): 11%
- NO-NSAID response rate % (average) (HUVEC cells; Lenvatinib (10 μM), NO-NSAID 1 μM): 44%
- NO-NSAID response rate % (average) (HUVEC cells; [13]): 32%
- NO-NSAID response rate % (average) (HUVEC cells; Lenvatinib (10 μM), NO-NSAID 500 μM): 16%
- NO-NSAID response rate % (average) (HUVEC cells; Olmutinib (10 μM), NO-NSAID 0.1 μM): 19%
- NO-NSAID response rate % (average) (HUVEC cells; Olmutinib (10 μM), NO-NSAID 1 μM): 34%
- NO-NSAID response rate % (average) (HUVEC cells; [14]): 48%
- NO-NSAID response rate % (average) (HUVEC cells; Olmutinib (10 μM), NO-NSAID 500 μM): 39%
- NO-NSAID response rate % (average) (HUVEC cells; Regorafenib (5 μM), NO-NSAID 0.1 μM): 29%
- NO-NSAID response rate % (average) (HUVEC cells; Regorafenib (5 μM), NO-NSAID 1 μM): 46%
- NO-NSAID response rate % (average) (HUVEC cells; [15]): 83%
- NO-NSAID response rate % (average) (HUVEC cells; Regorafenib (5 μM), NO-NSAID 500 μM): 22%
- NO-NSAID response rate % (average) (HUVEC cells; Selumetinib (5 μM), NO-NSAID 0.1 μM): 38%
- NO-NSAID response rate % (average) (HUVEC cells; Selumetinib (5 μM), NO-NSAID 1 μM): 42%
- NO-NSAID response rate % (average) (HUVEC cells; [16]): 61%
- NO-NSAID response rate % (average) (HUVEC cells; Selumetinib (5 μM), NO-NSAID 500 μM): 26%
- NO-NSAID response rate % (average) (HUVEC cells; Sorafenib (5 μM), NO-NSAID 0.1 μM): 20%
- NO-NSAID response rate % (average) (HUVEC cells; Sorafenib (5 μM), NO-NSAID 1 μM): 20%
- NO-NSAID response rate % (average) (HUVEC cells; [17]): 1%
- NO-NSAID response rate % (average) (HUVEC cells; Sorafenib (5 μM), NO-NSAID 500 μM): 3%
- NO-NSAID response rate % (average) (HUVEC cells; Sunitinib (5 μM), NO-NSAID 0.1 μM): 20%
- NO-NSAID response rate % (average) (HUVEC cells; Sunitinib (5 μM), NO-NSAID 1 μM): 40%
- NO-NSAID response rate % (average) (HUVEC cells; [18]): 44%
- NO-NSAID response rate % (average) (HUVEC cells; Sunitinib (5 μM), NO-NSAID 500 μM): 31%
